The values below come from article PMC6556873, “Rapid Covalent-Probe Discovery by Electrophile-Fragment Screening” (Journal of the American Chemical Society, 2019).

One series addresses T1, BSA (Bos taurus, UniProt P02769).
T1 construct: gene ALB
Also on record: Intact protein LC/MS covalent labelling, fragments in pools of five, 200 uM each, 4 °C. Conditions: 24 h, 4 °C, pool of five; 200 µM; covalent.

A further series deals with T2, NUDT7 (Homo sapiens, UniProt P0C024).
T2 construct: residues 14-235, E. coli, pNIC28-Bsa4, N-terminal His6 tag removed by TEV, construct 26672 Da
T2 sequence (P0C024 14-235): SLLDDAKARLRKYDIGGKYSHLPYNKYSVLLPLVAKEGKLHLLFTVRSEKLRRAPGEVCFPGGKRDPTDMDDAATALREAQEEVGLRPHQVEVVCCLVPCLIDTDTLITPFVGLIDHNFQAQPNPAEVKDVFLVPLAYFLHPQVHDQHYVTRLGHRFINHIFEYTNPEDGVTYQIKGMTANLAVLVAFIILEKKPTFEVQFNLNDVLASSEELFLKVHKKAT
Also on record: Intact protein LC/MS covalent labelling, fragments in pools of five, 200 uM each, 4 °C. Particulars: 24 h, 4 °C, pool of five; 200 µM; covalent.

For a further series, the target named is T3, OTUB2 (OTUB2A) (Homo sapiens, UniProt Q96DC9).
T3 construct: full length residues 1-234, E. coli BL21(DE3)-R3, His tag removed by TEV, construct 27312 Da
T3 sequence (Q96DC9 1-234): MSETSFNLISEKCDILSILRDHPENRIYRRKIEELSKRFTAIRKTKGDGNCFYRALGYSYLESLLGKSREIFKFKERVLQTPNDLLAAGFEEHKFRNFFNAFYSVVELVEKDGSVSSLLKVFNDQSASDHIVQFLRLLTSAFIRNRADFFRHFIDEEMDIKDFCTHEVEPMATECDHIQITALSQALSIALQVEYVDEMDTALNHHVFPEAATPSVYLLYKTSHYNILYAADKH
Also on record: Intact protein LC/MS covalent labelling, fragments in pools of five, 200 uM each, 4 °C. Conditions: 24 h, 4 °C, pool of five; 200 µM; covalent.

In the next series the target is T4, PCAF (Homo sapiens, UniProt Q92831).
T4 construct: gene KAT2B
T4 sequence (Q92831 whole entry): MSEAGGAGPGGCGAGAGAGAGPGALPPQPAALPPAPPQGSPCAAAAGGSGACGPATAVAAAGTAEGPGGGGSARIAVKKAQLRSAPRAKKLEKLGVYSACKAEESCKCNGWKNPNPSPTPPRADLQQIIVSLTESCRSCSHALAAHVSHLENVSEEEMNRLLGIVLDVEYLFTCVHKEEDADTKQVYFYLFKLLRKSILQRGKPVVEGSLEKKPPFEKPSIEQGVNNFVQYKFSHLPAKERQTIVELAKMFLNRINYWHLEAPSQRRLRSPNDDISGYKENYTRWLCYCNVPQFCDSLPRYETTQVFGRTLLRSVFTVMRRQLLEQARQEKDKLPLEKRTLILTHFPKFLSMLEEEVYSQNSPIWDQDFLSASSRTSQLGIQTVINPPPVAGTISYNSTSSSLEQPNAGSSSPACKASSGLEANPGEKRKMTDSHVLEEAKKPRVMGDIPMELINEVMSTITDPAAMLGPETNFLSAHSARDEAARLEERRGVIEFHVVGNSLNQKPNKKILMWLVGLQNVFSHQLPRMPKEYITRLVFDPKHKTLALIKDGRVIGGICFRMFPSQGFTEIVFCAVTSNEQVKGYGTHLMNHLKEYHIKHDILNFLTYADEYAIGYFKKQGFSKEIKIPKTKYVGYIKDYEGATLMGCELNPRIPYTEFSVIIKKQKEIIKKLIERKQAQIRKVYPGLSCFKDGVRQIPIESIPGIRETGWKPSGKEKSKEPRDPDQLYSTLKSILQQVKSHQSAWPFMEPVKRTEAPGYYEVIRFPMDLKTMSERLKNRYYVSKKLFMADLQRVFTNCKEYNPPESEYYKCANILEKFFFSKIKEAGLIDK
The arrangement: Intact protein LC/MS covalent labelling, fragments in pools of five, 200 uM each, 4 °C. Particulars: 24 h, 4 °C, pool of five; 200 µM; covalent.

Series [1] can be described thus: in vitro. Also on record: species or system CCD841, HEK293. Particulars: human, hb2 cells, read-out: HB-2 Cells Viability (%).
Series [2] is described as follows: in vitro. The arrangement: species or system HB2, HEK293. Conditions: human, ccd841 cells.
A short description of series [3]: in vitro. Also on record: species or system HB2, CCD841. Conditions: human, hek293 cells.

Read-outs that look alike come from different tables or passages of the source.

T1 sequence (P02769 whole entry): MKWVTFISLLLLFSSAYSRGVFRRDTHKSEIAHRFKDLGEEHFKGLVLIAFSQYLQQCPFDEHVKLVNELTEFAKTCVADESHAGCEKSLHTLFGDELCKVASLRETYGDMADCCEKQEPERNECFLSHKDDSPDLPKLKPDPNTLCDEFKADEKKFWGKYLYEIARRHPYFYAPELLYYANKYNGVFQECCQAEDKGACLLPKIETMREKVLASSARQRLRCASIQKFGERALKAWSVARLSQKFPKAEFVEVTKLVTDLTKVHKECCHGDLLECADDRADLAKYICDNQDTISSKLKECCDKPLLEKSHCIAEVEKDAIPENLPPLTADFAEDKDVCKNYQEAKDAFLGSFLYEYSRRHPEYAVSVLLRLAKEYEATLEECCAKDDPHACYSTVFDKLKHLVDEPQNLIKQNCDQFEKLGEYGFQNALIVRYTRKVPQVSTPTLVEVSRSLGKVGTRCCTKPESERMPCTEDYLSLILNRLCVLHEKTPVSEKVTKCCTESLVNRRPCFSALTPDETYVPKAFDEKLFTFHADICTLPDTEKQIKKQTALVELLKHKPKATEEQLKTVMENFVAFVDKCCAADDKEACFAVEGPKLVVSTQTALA

In general, viability refers to a read-out of living cells in per cent, often relative to untreated cells. In turn, `Cl.O=C(CCl)N1CCN(CC(=O)N2CCOCC2)CC1` [PCM-0102133] gave a BSA at BSA of 0. Further, on NUDT7, the NUDT7 is given as 0. Besides, the OTUB2 on OTUB2 (OTUB2A) came out at 0.15. The molecule also had a PCAF on PCAF of 0. The figures for the viability at 48 h, 10 µM in the series “in vitro [1]”, in “in vitro [2]” and in “in vitro [3]” were 96.6%, 94.8% and 92.7%, respectively.
For the molecule `Cl.O=C(CCl)N1CCN(c2ccc(O)cc2)CC1` [PCM-0102357], the BSA at BSA is recorded as 0. Also, the NUDT7 at NUDT7 was 0. The OTUB2 at OTUB2 (OTUB2A) is given as 0. Further, the PCAF on PCAF is on record as 0. Further, the viability at 48 h, 10 µM in the series “in vitro [1]” was found to be 31%; in “in vitro [2]”, 76.7%; in “in vitro [3]”, 12.7%.
At BSA, `O=C(CCl)Nc1cccc(F)c1` [PCM-0102364] registered a BSA of 0. Besides, on NUDT7, the NUDT7 worked out at 0.09. The same molecule returned an OTUB2 at OTUB2 (OTUB2A) of 0. Also, the PCAF on PCAF is on record as 0. Further, the viability at 48 h, 10 µM in the series “in vitro [1]” was found to be 25%; in “in vitro [2]”, 45.7%; in the series “in vitro [3]”, 5.9%.
`C=CC(=O)N1CC(C(=O)NC)C1` [PCM-0102843] registered a BSA at BSA of 0.23. In addition, on NUDT7, the NUDT7 came to 0. Further, on OTUB2 (OTUB2A), the OTUB2 worked out at 0.1. This molecule also yielded a PCAF at PCAF of 0. Besides, the viability at 48 h, 10 µM in “in vitro [1]” was 104%; in the series “in vitro [2]” it was 114%; in the series “in vitro [3]”, 94.1%.
In the case of `CC(c1ccccc1)N1CCN(C(=O)CCl)CC1.Cl` (centres unmarked) [PCM-0102710], the BSA on BSA was determined as 0. Also, the NUDT7 on NUDT7 is recorded as 0. Also, the OTUB2 on OTUB2 (OTUB2A) is listed as 0.12. This molecule came in with a PCAF at PCAF of 0. In addition, the viability at 48 h, 10 µM amounted to 36.7% in “in vitro [1]”, 72.5% in the series “in vitro [2]” and 41.3% in the series “in vitro [3]”.
In turn, `Cc1ccc(NC(=O)NC(=O)CCl)c(C)c1` [PCM-0102171] came in with a BSA on BSA of 0. This molecule gave an NUDT7 on NUDT7 of 0.2. Besides, at OTUB2 (OTUB2A), the OTUB2 is 0.1. Also, on PCAF, the PCAF amounted to 0. For the same molecule, the viability at 48 h, 10 µM in the series “in vitro [1]” came to 78.8%; in the series “in vitro [2]”, 53.9%; in “in vitro [3]”, 74.7%.
As for `COc1ccc(C)cc1NC(=O)CCl` [PCM-0103043], the BSA at BSA worked out at 0. The same molecule came in with an NUDT7 on NUDT7 of 0.06. This molecule displayed an OTUB2 on OTUB2 (OTUB2A) of 0.27. On PCAF, the PCAF came to 0. Moreover, the viability at 48 h, 10 µM in the series “in vitro [1]” worked out at 81.3%; in the series “in vitro [2]”, 79.1%; in the series “in vitro [3]”, 63.7%.
The molecule `O=C(CCl)NNC(=O)c1cccc(Cl)c1` [PCM-0102470] returned a BSA at BSA of 0. Moreover, the NUDT7 at NUDT7 is 0. Also, the OTUB2 on OTUB2 (OTUB2A) is 0.38. On PCAF, this molecule came in with a PCAF of 0. The viability at 48 h, 10 µM is 84.7% in the series “in vitro [1]”, 81.3% in the series “in vitro [2]” and 94.8% in the series “in vitro [3]”.
Molecule `C=CC(=O)N1Cc2c(OC)ccc(OC)c2C(O)C1` (centres unmarked) [PCM-0102680] yielded a BSA on BSA of 0.1. Also, at NUDT7, the NUDT7 stood at 0. On OTUB2 (OTUB2A), this molecule had an OTUB2 of 0.08. The PCAF on PCAF is on record as 0. Besides, the viability at 48 h, 10 µM is 104% in the series “in vitro [1]”, 135% in the series “in vitro [2]” and 119% in the series “in vitro [3]”.
As for `Cc1ccc(NC(=O)CCl)cc1` [PCM-0102320], the BSA at BSA turned out to be 0. In addition, at NUDT7, the NUDT7 worked out at 0. At OTUB2 (OTUB2A), this molecule registered an OTUB2 of 0.24. The molecule also came in with a PCAF at PCAF of 0. In addition, the viability at 48 h, 10 µM in the series “in vitro [1]” was 29.1%; in the series “in vitro [2]”, 63.2%; in “in vitro [3]”, 8.7%.
In turn, `CC(NC(=O)CCl)C(=O)N1CCCCC1` (centres unmarked) [PCM-0102598] yielded a BSA on BSA of 0. For the same molecule, the NUDT7 on NUDT7 turned out to be 0. The same molecule returned an OTUB2 at OTUB2 (OTUB2A) of 0. For the same molecule, at PCAF, the PCAF is on record as 0. Also, the viability at 48 h, 10 µM came to 101% in “in vitro [1]”, 99.9% in “in vitro [2]” and 98.7% in the series “in vitro [3]”.
